Laboratory results taken from US6525001B1, “Substituted pyrimidine and pyridine herbicides” (Mid-American Commercialization Corporation, priority 1997, dated 2003).

Columns and labels:
Type in all cases: in vivo
Set-up in all cases: key: 0 is no effect; 10 is complete control
[1] = test system: bedstraw (Galium aparine); test: Test B pre-/postemergence; conditions: for Bedstraw plant response rating: Preemergence
From the text: (§1) Seeds of bedstraw (Galium aparine), blackgrass (Alopecurus myosuroides), broadleaf signalgrass (Brachiaria decumbens), cocklebur (Xanthium strumarium), corn (Zea mays), crabgrass (Digitaria sanguinalis), giant foxtail (Setaria faberii), lambsquarters (Chenopodium album), momingglory (Ipomoea hederacea), pigweed (Amaranthus retroflexus), rape (Brassica napus), soybean (Glycine max), sugar beet (Beta vulgaris), velvetleaf (Abutilon theophrasti), wheat (Triticum aestivum), wild oat (Avena fatua) and purple nutsedge (Cyperus rotundus) tubers were planted and treated preemergence with test chemicals formulated in a non-phytotoxic solvent mixture which included a surfactant.
(§2) At the same time, these crop and weed species were also treated with postemergence applications of test chemicals formulated in the same manner. Plants ranged in height from 2 to 18 cm (1- to 4-leaf stage) for postemergence treatments. Plant species in the flood test consisted of rice (Oryza sativa), smallflower flatsedge (Cyperus difformis), duck salad (Heteranthera limosa) and bamyardgrass (Echinochloa crus-galli) grown to the 2-leaf stage for testing. Treated plants and controls were maintained in a greenhouse for twelve to sixteen days, after which all species were compared to controls and visually evaluated. Plant response ratings, summarized in Table B, are based on a scale of 0 to 10 where 0 is no effect and 10 is complete control. A dash (−) response means no test result.

[2] = test system: blackgrass (Alopecurus myosuroides); test: Test B pre-/postemergence; conditions: for Blackgrass plant response rating: Preemergence
From the text: as §1, §2

[3] = test system: broadleaf signalgrass (Brachiaria decumbens); test: Test B pre-/postemergence; conditions: for B. signalgrass plant response rating: Preemergence
From the text: as §1, §2

[4] = test system: cocklebur (Xanthium strumarium); test: Test B pre-/postemergence; conditions: for Cocklebur plant response rating: Preemergence
From the text: as §1, §2

corn (Zea mays) = test: Test B pre-/postemergence; conditions: for Corn plant response rating: Preemergence
From the text: as §1, §2

[5] = test system: crabgrass (Digitaria sanguinalis); test: Test B pre-/postemergence; conditions: for Crabgrass plant response rating: Preemergence
From the text: as §1, §2

[6] = test system: giant foxtail (Setaria faberii); test: Test B pre-/postemergence
From the text: as §1, §2

[7] = test system: momingglory (Ipomoea hederacea); test: Test B pre-/postemergence
From the text: as §1, §2

[8] = test system: pigweed (Amaranthus retroflexus); test: Test B pre-/postemergence
From the text: as §1, §2

[9] = test system: purple nutsedge (Cyperus rotundus); test: Test B pre-/postemergence
From the text: as §1, §2

rape (Brassica napus) = test: Test B pre-/postemergence
From the text: as §1, §2

soybean (Glycine max) = test: Test B pre-/postemergence
From the text: as §1, §2

[10] = test system: sugar beet (Beta vulgaris); test: Test B pre-/postemergence
From the text: as §1, §2

[11] = test system: velvetleaf (Abutilon theophrasti); test: Test B pre-/postemergence
From the text: as §1, §2

[12] = test system: wheat (Triticum aestivum); test: Test B pre-/postemergence
From the text: as §1, §2

wild oat (Avena fatua) = test: Test B pre-/postemergence
From the text: as §1, §2

[13] = test system: bamyardgrass (Echinochloa crus-galli); test: Test B flood test
How it was run: (§3)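 Flood test on plants grown to the 2-leaf stage; treated plants kept in greenhouse twelve to sixteen days, then visually rated against controls on a 0 (no effect) to 10 (complete control) scale.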

[14] = test system: duck salad (Heteranthera limosa); test: Test B flood test
How it was run: as §3

rice (Oryza sativa) = test: Test B flood test
How it was run: as §3

[15] = test system: smallflower flatsedge (Cyperus difformis); test: Test B flood test
How it was run: as §3

[16] = Rate 250 g/ha, Postemergence (so in the source)
[17] = Rate 62 g/ha, Postemergence (flood test)
[18] = Rate 125 g/ha, Postemergence, flood test
[19] = Rate 250 g/ha, Postemergence (flood test species)
[20] = Rate 125 g/ha, Postemergence section (flood test species)

Cc1cnc(-c2ccc(Cl)cc2F)nc1Cc1cccc(C#N)c1 [Compound 35] was tested, and the “Plant response rating, Bedstraw” value ([1]; Rate 62 g/ha, Postemergence) was 6, the “Bedstraw plant response rating” value ([1]; Rate 62 g/ha) was 0 and the “Plant response rating, Bedstraw” value ([1]; Rate 125 g/ha, Postemergence) was 6. The “Bedstraw plant response rating” value ([1]; Rate 125 g/ha) was 0, the “Plant response rating, Bedstraw” value ([1]; Rate 250 g/ha, Postemergence) was 8 and the “Plant response rating, Bedstraw” value [1, 16] was 1. The “Plant response rating, Blackgrass” value ([2]; Rate 62 g/ha, Postemergence) was 1, the “Blackgrass plant response rating” value ([2]; Rate 62 g/ha) was 0 and the “Plant response rating, Blackgrass” value ([2]; Rate 125 g/ha, Postemergence) was 1. For the same compound, the “Blackgrass plant response rating” value ([2]; Rate 125 g/ha) was 0, the “Plant response rating, Blackgrass” value ([2]; Rate 250 g/ha, Postemergence) was 1 and the “Plant response rating, Blackgrass” value [2, 16] was 0. For the same compound, the “Plant response rating, B. signalgrass” value ([3]; Rate 62 g/ha, Postemergence) was 1, the “B. signalgrass plant response rating” value ([3]; Rate 62 g/ha) was 0 and the “Plant response rating, B. signalgrass” value ([3]; Rate 125 g/ha, Postemergence) was 1. For the same compound, the “B. signalgrass plant response rating” value ([3]; Rate 125 g/ha) was 0, the “Plant response rating, B. signalgrass” value ([3]; Rate 250 g/ha, Postemergence) was 1 and the “Plant response rating, B. signalgrass” value ([3]; Rate 250 g/ha, Postemergence as printed in head r139 (second section for compounds 26-50)) was 0. The “Plant response rating, Cocklebur” value ([4]; Rate 62 g/ha, Postemergence) was 2, the “Cocklebur plant response rating” value ([4]; Rate 62 g/ha) was 0 and the “Plant response rating, Cocklebur” value ([4]; Rate 125 g/ha, Postemergence) was 2. The “Cocklebur plant response rating” value ([4]; Rate 125 g/ha) was 0, the “Plant response rating, Cocklebur” value ([4]; Rate 250 g/ha, Postemergence) was 2 and the “Plant response rating, Cocklebur” value [4, 16] was 0. For the same compound, the “Plant response rating, Corn” value (corn (Zea mays); Rate 62 g/ha, Postemergence) was 1, the “Corn plant response rating” value (corn (Zea mays); Rate 62 g/ha) was 0 and the “Plant response rating, Corn” value (corn (Zea mays); Rate 125 g/ha, Postemergence) was 1. The “Corn plant response rating” value (corn (Zea mays); Rate 125 g/ha) was 0, the “Plant response rating, Corn” value (corn (Zea mays); Rate 250 g/ha, Postemergence) was 1 and the “Plant response rating, Corn” value (corn (Zea mays); [16]) was 0. For the same compound, the “Plant response rating, Crabgrass” value ([5]; Rate 62 g/ha, Postemergence) was 2, the “Crabgrass plant response rating” value ([5]; Rate 62 g/ha) was 0 and the “Plant response rating, Crabgrass” value ([5]; Rate 125 g/ha, Postemergence) was 2. For the same compound, the “Crabgrass plant response rating” value ([5]; Rate 125 g/ha) was 1, the “Plant response rating, Crabgrass” value ([5]; Rate 250 g/ha, Postemergence) was 2 and the “Plant response rating, Crabgrass” value [5, 16] was 1. The “Plant response rating, Giant foxtail” value ([6]; Rate 62 g/ha, Postemergence) was 1, the “Giant foxtail plant response rating” value ([6]; Rate 62 g/ha, Preemergence) was 0 and the “Giant foxtail plant response rating” value ([6]; Rate 125 g/ha, Postemergence) was 1. For the same compound, the “Giant foxtail plant response rating” value ([6]; Rate 125 g/ha, Preemergence) was 0, the “Plant response rating, Giant foxtail” value ([6]; Rate 250 g/ha, Postemergence) was 1 and the “Plant response rating, Giant foxtail” value [6, 16] was 1. For the same compound, the “Plant response rating, Morningglory” value ([7]; Rate 62 g/ha, Postemergence) was 1, the “Morningglory plant response rating” value ([7]; Rate 62 g/ha, Preemergence) was 0 and the “Morningglory plant response rating” value ([7]; Rate 125 g/ha, Postemergence) was 1. For the same compound, the “Morningglory plant response rating” value ([7]; Rate 125 g/ha, Preemergence) was 0, the “Plant response rating, Morningglory” value ([7]; Rate 250 g/ha, Postemergence) was 1 and the “Plant response rating, Morningglory” value [7, 16] was 0. The “Plant response rating, Redroot pigweed” value ([8]; Rate 62 g/ha, Postemergence) was 3, the “Redroot pigweed plant response rating” value ([8]; Rate 62 g/ha, Preemergence) was 0 and the “Redroot pigweed plant response rating” value ([8]; Rate 125 g/ha, Postemergence) was 3. For the same compound, the “Redroot pigweed plant response rating” value ([8]; Rate 125 g/ha, Preemergence) was 0, the “Plant response rating, Redroot pigweed” value ([8]; Rate 250 g/ha, Postemergence) was 5 and the “Plant response rating, Redroot pigweed” value [8, 16] was 5. For the same compound, the “Plant response rating, Nutsedge” value ([9]; Rate 62 g/ha, Postemergence) was 0, the “Nutsedge plant response rating” value ([9]; Rate 62 g/ha, Preemergence) was 0 and the “Nutsedge plant response rating” value ([9]; Rate 125 g/ha, Postemergence) was 0. For the same compound, the “Nutsedge plant response rating” value ([9]; Rate 125 g/ha, Preemergence) was 0, the “Plant response rating, Nutsedge” value ([9]; Rate 250 g/ha, Postemergence) was 0 and the “Plant response rating, Nutsedge” value [9, 16] was 0. For the same compound, the “Plant response rating, Rape” value (rape (Brassica napus); Rate 62 g/ha, Postemergence) was 6, the “Rape plant response rating” value (rape (Brassica napus); Rate 62 g/ha, Preemergence) was 0 and the “Rape plant response rating” value (rape (Brassica napus); Rate 125 g/ha, Postemergence) was 6. The “Rape plant response rating” value (rape (Brassica napus); Rate 125 g/ha, Preemergence) was 0, the “Plant response rating, Rape” value (rape (Brassica napus); Rate 250 g/ha, Postemergence) was 9 and the “Plant response rating, Rape” value (rape (Brassica napus); [16]) was 0. For the same compound, the “Plant response rating, Soybean” value (soybean (Glycine max); Rate 62 g/ha, Postemergence) was 1, the “Soybean plant response rating” value (soybean (Glycine max); Rate 62 g/ha, Preemergence) was 0 and the “Soybean plant response rating” value (soybean (Glycine max); Rate 125 g/ha, Postemergence) was 2. The “Plant response rating, Soybean” value (soybean (Glycine max); Rate 125 g/ha, Preemergence) was 0, the “Plant response rating, Soybean” value (soybean (Glycine max); Rate 250 g/ha, Postemergence) was 2 and the “Plant response rating, Soybean” value (soybean (Glycine max); [16]) was 0. For the same compound, the “Plant response rating, Sugarbeets” value ([10]; Rate 62 g/ha, Postemergence) was 9, the “Sugarbeets plant response rating” value ([10]; Rate 62 g/ha, Preemergence) was 0 and the “Sugarbeets plant response rating” value ([10]; Rate 125 g/ha, Postemergence) was 10. For the same compound, the “Plant response rating, Sugarbeets” value ([10]; Rate 125 g/ha, Preemergence) was 0, the “Plant response rating, Sugarbeets” value ([10]; Rate 250 g/ha, Postemergence) was 10 and the “Plant response rating, Sugarbeets” value [10, 16] was 1. The “Plant response rating, Velvetleaf” value ([11]; Rate 62 g/ha, Postemergence) was 1, the “Velvetleaf plant response rating” value ([11]; Rate 62 g/ha, Preemergence) was 0 and the “Velvetleaf plant response rating” value ([11]; Rate 125 g/ha, Postemergence) was 1. For the same compound, the “Plant response rating, Velvetleaf” value ([11]; Rate 125 g/ha, Preemergence) was 0, the “Plant response rating, Velvetleaf” value ([11]; Rate 250 g/ha, Postemergence) was 1 and the “Plant response rating, Velvetleaf” value [11, 16] was 1. For the same compound, the “Wheat plant response rating” value ([12]; Rate 62 g/ha, Postemergence) was 0, the “Wheat plant response rating” value ([12]; Rate 62 g/ha, Preemergence) was 0 and the “Wheat plant response rating” value ([12]; Rate 125 g/ha, Postemergence) was 0. For the same compound, the “Plant response rating, Wheat” value ([12]; Rate 125 g/ha, Preemergence) was 0, the “Plant response rating, Wheat” value ([12]; Rate 250 g/ha, Postemergence) was 1 and the “Plant response rating, Wheat” value [12, 16] was 0. The “Wild oats plant response rating” value (wild oat (Avena fatua); Rate 62 g/ha, Postemergence) was 1, the “Wild oats plant response rating” value (wild oat (Avena fatua); Rate 62 g/ha, Preemergence) was 0 and the “Wild oats plant response rating” value (wild oat (Avena fatua); Rate 125 g/ha, Postemergence) was 1. The “Plant response rating, Wild oats” value (wild oat (Avena fatua); Rate 125 g/ha, Preemergence) was 0, the “Plant response rating, Wild oats” value (wild oat (Avena fatua); Rate 250 g/ha, Postemergence) was 2 and the “Plant response rating, Wild oats” value (wild oat (Avena fatua); [16]) was 1. For the same compound, the “Plant response rating, Barnyardgrass” value [13, 17] was 0, the “Plant response rating, Barnyardgrass” value [13, 18] was 2 and the “Plant response rating, Barnyardgrass” value [13, 19] was 2. The “Plant response rating, Ducksalad” value [14, 17] was 0, the “Plant response rating, Ducksalad” value [14, 18] was 0 and the “Plant response rating, Ducksalad” value [14, 19] was 1. The “Plant response rating, Rice” value (rice (Oryza sativa); [17]) was 0, the “Rice plant response rating” value (rice (Oryza sativa); [20]) was 1 and the “Plant response rating, Rice” value (rice (Oryza sativa); [19]) was 1. The “Plant response rating, S. Flatsedge” value [15, 17] was 1, the “S. Flatsedge plant response rating” value [15, 20] was 2 and the “Plant response rating, S. Flatsedge” value [15, 19] was 2.
